Measurements as given in patent US10774051B2, “6-membered heterocyclic derivatives and pharmaceutical composition comprising the same” (Shionogi & Co., Ltd., priority 2015, dated 2020).
Where two headings read alike, the source gives them in different places.

Legend:
[1] = tested on: partial sciatic nerve ligation model in rats; assay: Analgesic effect in a Seltzer model, evaluation (1): mechanical allodynia, von Frey filaments; assay type: in vivo; settings: rat, read-out: analgesic effect, % reversal of mechanical allodynia
From the text: Preparation of Partial Sciatic Nerve Ligation Model in Rats
Rats are anaesthetized using isoflurane/O2 inhalation anaesthesia. After induction of anesthesia, the left thigh is shaved. An incision was made in the skin just below the hip bone. The muscle was bluntly dissected to expose the sciatic nerve. About one half (½) of the sciatic nerve thickness is tightly ligated with a nylon thread and the wound is closed. The right thigh was used as a sham-operated control. The right thigh underwent an identical procedure with the left hind limb, however, the sciatic nerve was not manipulated or ligated.
Two weeks after nerve ligation, the effect on mechanical allodynia was assessed using a series of von Frey filaments. For habituation, the rats were placed into a plastic cage on a wire mesh bottom. Von Frey filaments (0.4 to 26 g) were applied to the plantar surface of the rat hind paws from the wire mesh side, and the value of the filament pressure at which the paw was withdrawn was used as a pain threshold. The measurement of mechanical sensitivity of the right and left hind paws was performed to obtain predose mechanical sensitivity. The rats showing the threshold change from 0.6 to 2 g (in nerve ligated side) and 8 to 15 g (in sham operated side) were used in the experiments. On the day before the experiment, the rats were evaluated with a series of von Frey filaments to familiarize them with the test procedure. The adopted animal was administrated with the compounds of the present invention. The compounds of the present invention were homogenized with mortar and pestle and suspended or diluted in 0.5% Methyl Cellulose to prepare 0.03-100 mg/2 mL/kg suspension and orally administered to rat using a syringe attached with a sonde. Post-dose mechanical sensitivities of the right and left hind paws were measured at approximately 1 to 7 hours after drug administration. Percent reversal of mechanical allodynia for each rat was calculated using the following formula. The analgesic effects of the compounds were compared.

human P2X7 receptor = human P2X7 receptor (Homo sapiens, UniProt Q99572, R270H/Y155H); assay: Evaluation of human P2X7 receptor inhibitory activity (Yo-Pro uptake, BzATP stimulation, FLIPR TETRA); assay type: cell-based
Summary of the method: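 1321N1 cells stably expressing human P2X7 (T606C/G952A SNP variant), in HBSS buffer pH 7.4-7.5 with Yo-Pro, stimulated with BzATP; compound added 8 min after agonist. Fluorescence followed for 20 min on FLIPR; max-minus-min change gave % inhibition, IC50 by logistic fit.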

[2] = 3 hours after oral administration of 3 mg/kg
[3] = 1321N1 cells stably expressing human P2X7 receptor, BzATP stimulation, Yo-Pro uptake, read-out: IC50 (antagonistic activity for the human P2X7 receptor)
[4] = 5 hours after oral administration of 3 mg/kg
[5] = antagonistic activity for the human P2X7 receptor, read-out: IC50

| SMILES | IC50 (human P2X7 receptor; [3]) [nM] | IC50 (human P2X7 receptor; [5]) [nM] | other results |
| --- | --- | --- | --- |
| COc1cn(Cc2ccc(F)c(Cl)c2)c(Nc2cc3sc(C)nc3cc2C)nc1=O [Compound I-0005] | 5 |  | inhibition in vivo at 3 mg/kg [1, 2]: 45% |
| COc1cn(Cc2ccc(F)c(Cl)c2)c(Nc2cc(C)c(Cl)cc2C)nc1=O [Compound I-0006] | 6 |  | inhibition in vivo at 3 mg/kg [1, 2]: 49% |
| COc1ccc(C)c(Nc2nc(=O)c(OC)cn2Cc2ccc(F)c(Cl)c2)c1 [Compound I-0354] | 3 |  | inhibition in vivo at 3 mg/kg [1, 2]: 51% |
| COc1cn(Cc2ccc(F)c(Cl)c2)c(Nc2ccc(OC(F)F)cc2C)nc1=O [Compound I-0365] | 18 |  | inhibition in vivo at 3 mg/kg [1, 4]: 55% |
| COc1cc(C)c(Nc2nc(=O)c(OC)cn2Cc2cc(F)cc(F)c2)cc1C [Compound I-0372] | 5 |  | inhibition in vivo at 3 mg/kg [1, 2]: 64% |
| CCOc1ccc(Nc2nc(=O)c(OC)cn2Cc2cc(F)c(F)c(F)c2)c(C)c1 [Compound I-0702] | 11 |  | inhibition in vivo at 3 mg/kg [1, 4]: 58% |
| COc1cn(Cc2cc(F)c(F)c(F)c2)c(Nc2ccc(OC(F)F)cc2C)nc1=O [Compound I-0707] | 14 |  | inhibition in vivo at 3 mg/kg ([1]; 7 hours after oral administration of 3 mg/kg): 53% |
| COc1ccc(Nc2nc(=O)c(F)cn2Cc2cc(F)cc(F)c2)c(C)c1 [Compound I-0842] | 5 |  | inhibition in vivo at 3 mg/kg [1, 4]: 69% |
| COc1cn(Cc2cc(F)c(F)c(F)c2)c(Nc2cc3c(cc2C)COC3)nc1=O [Compound I-0910] | 14 |  | inhibition in vivo at 3 mg/kg [1, 4]: 45% |
| COc1ccc(Nc2nc(=O)c(F)cn2Cc2cc(F)c(F)c(F)c2)c(C)c1 [Compound I-1040] | 6 |  | inhibition in vivo at 3 mg/kg [1, 2]: 49% |
| Cc1cc2c(cc1Nc1nc(=O)c(F)cn1Cc1cc(F)c(F)c(F)c1)COC2 [Compound I-1041] | 9 |  | inhibition in vivo at 3 mg/kg [1, 4]: 48% |
| COc1cc(Nc2nc(=O)c(F)cn2Cc2cc(F)cc(F)c2)c(C)cc1F [Compound I-1050] | 10 |  | inhibition in vivo at 3 mg/kg [1, 4]: 46% |
| COc1ccc(C)c(Nc2nc(=O)c(F)cn2Cc2cc(F)c(F)c(F)c2)c1 [Compound I-1066] | 3 |  | inhibition in vivo at 3 mg/kg [1, 4]: 63% |
| O=C1CCCc2c(Nc3nc(=O)c(F)cn3Cc3cc(F)c(F)c(F)c3)cccc21 [Compound I-1108] | 4 |  | inhibition in vivo at 3 mg/kg [1, 4]: 42% |
| Cc1cc(Nc2nc(=O)c(F)cn2Cc2cc(F)c(F)c(F)c2)c(C)nc1OC(F)F [Compound I-1232] | 6 |  | inhibition in vivo at 3 mg/kg [1, 4]: 55% |
| COc1cc(C)c(Nc2nc(=O)c(C)nn2Cc2cc(F)cc(F)c2)cc1OC [Compound I-1261] | 16 |  | inhibition in vivo at 3 mg/kg [1, 4]: 54% |
| COc1ccc(Nc2nc(=O)cnn2Cc2ccc(F)c(Cl)c2)c(C)c1 [Compound I-1270] |  | < 10 |  |
| COc1ccc(Nc2nc(=O)cnn2Cc2cc(F)cc(F)c2)c(C)c1 [Compound I-1271] |  | < 10 |  |
| COc1ccc(Nc2nc(=O)cnn2Cc2ccc(F)c(F)c2)c(C)c1 [Compound I-1272] |  | < 10 |  |
| COc1ccc(Nc2nc(=O)cnn2Cc2ccc(F)cc2)c(C)c1 [Compound I-1273] |  | < 10 |  |
| COc1ccc(Nc2nc(=O)cnn2Cc2cccc(F)c2)c(C)c1 [Compound I-1274] |  | < 10 |  |
| COc1ccc(Nc2nc(=O)cnn2Cc2ccccc2F)c(C)c1 [Compound I-1275] |  | 100 to 500 |  |

| SMILES | IC50 (human P2X7 receptor; [3]) [nM] | IC50 (human P2X7 receptor; [5]) [nM] | other results |
| --- | --- | --- | --- |
| COc1ccc(Nc2nc(=O)cnn2Cc2ccccc2)c(C)c1 [Compound I-1276] |  | 10 to 100 |  |
| COc1ccc(Nc2nc(=O)c(C)nn2Cc2cc(F)c(F)c(F)c2)c(C)c1 [Compound I-1277] |  | < 10 |  |
| COc1cc(C)c(Nc2nc(=O)cnn2Cc2cc(F)c(F)c(F)c2)cc1Cl [Compound I-1278] |  | < 10 |  |
| COc1cc(Nc2nc(=O)cnn2Cc2cc(F)c(F)c(F)c2)c(C)cc1Cl [Compound I-1279] |  | < 10 |  |
| Cc1cc2c(cc1Nc1nc(=O)cnn1Cc1cc(F)c(F)c(F)c1)COC2 [Compound I-1280] |  | < 10 |  |
| COc1cc(C)c(Nc2nc(=O)cnn2Cc2cc(F)c(F)c(F)c2)cc1OC [Compound I-1281] | 4 |  | inhibition in vivo at 3 mg/kg [1, 4]: 48% |
| COc1ccc(C)c(Nc2nc(=O)cnn2Cc2cc(F)c(F)c(F)c2)c1 [Compound I-1282] |  | < 10 |  |
| COc1ccc(Nc2nc(=O)cnn2Cc2cc(F)c(F)c(F)c2)c(C)c1 [Compound I-1283] |  | < 10 |  |
| Cc1nc2cc(C)c(Nc3nc(=O)cnn3Cc3cc(F)c(F)c(F)c3)cc2s1 [Compound I-1284] |  | < 10 |  |
| COc1cn(Cc2cc(F)c(F)c(F)c2)c(Nc2cc3sc(C)nc3cc2C)nc1=NC#N [Compound I-1285] | 27 |  |  |
| Cc1nc2cc(C)c(Nc3nc(=NC#N)c(F)cn3Cc3cc(F)c(F)c(F)c3)cc2s1 [Compound I-1286] |  | < 10 |  |
| COc1cc(C)c(Nc2nc(=NC#N)c(OC)cn2Cc2cc(F)c(F)c(F)c2)cc1OC [Compound I-1287] |  | 10 to 100 |  |
| COc1cc(C)c(Nc2nc(=NC#N)c(F)cn2Cc2cc(F)c(F)c(F)c2)cc1OC [Compound I-1288] |  | 10 to 100 |  |
| CN=c1nc(Nc2cc(C)ccc2C)n(Cc2cc(F)c(F)c(F)c2)cc1F [Compound I-1289] |  | 100 to 500 |  |
| Cc1ccc(C)c(Nc2nc(=NO)c(F)cn2Cc2cc(F)c(F)c(F)c2)c1 [Compound I-1290] | 21 |  |  |
| CON=c1nc(Nc2cc3sc(C)nc3cc2C)n(Cc2cc(F)c(F)c(F)c2)cc1F [Compound I-1291] |  | 100 to 500 |  |
| CON=c1nc(Nc2cc(C)ccc2C)n(Cc2cc(F)c(F)c(F)c2)cc1F [Compound I-1292] |  | 100 to 500 |  |
| Cc1ccc(C)c(Nc2nc(=NC#N)c(F)cn2Cc2cc(F)c(F)c(F)c2)c1 [Compound I-1293] |  | < 10 |  |
| Cc1ccc(C)c(Nc2nc(=N)c(F)cn2Cc2cc(F)c(F)c(F)c2)c1 [Compound I-1294] |  | 10 to 100 |  |
| Cc1ccc(F)cc1Nc1nc(=O)c(F)cn1Cc1cc(F)c(F)c(F)c1 [Compound I-1295] | 13 |  | inhibition in vivo at 3 mg/kg [1, 2]: 51% |
| COc1ccc(F)c(Nc2nc(=O)c(F)cn2Cc2cc(F)c(F)c(F)c2)c1 [Compound I-1296] | 11 |  | inhibition in vivo at 3 mg/kg [1, 2]: 59% |
| COc1ccc(Nc2nc(=O)c(F)cn2Cc2cc(F)cc(F)c2)c(C)c1F [Compound I-1297] | 16 |  | inhibition in vivo at 3 mg/kg [1, 4]: 49% |
